Values of other authors as cited in publication PMC6277767, “Broad and Region-Specific Impacts of the Synthetic Cannabinoid CP 55,940 in Adolescent and Adult Female Mouse Brains” (Frontiers in Molecular Neuroscience, 2018).

What was measured:
[1] = design: method as in earlier work; details: ref Ferrari et al., 2000; Lopez et al., 2009; Gorzalka et al., 2010; cited from earlier work
[2] = tested on: CB2; design: method as in Felder et al., 1995; details: ref Felder et al., 1995; read-out: IC50, inhibition of adenylate cyclase at CB2; cited from earlier work
[3] = tested on: CB1; details: cited from earlier work

Compound: CCCCCCC(C)(C)c1ccc([C@@H]2C[C@H](O)CC[C@H]2CCCO)c(O)c1 [CP 55,940]
- doses attenuating social motivation [1]: over 0.4 mg/kg
- potency relative to THC ([3]; cannabinoid receptors, ref Showalter et al., 1996, Besnard et al., 2012): ~10 fold
- EC50 ([3]; ref Brents et al., 2011, read-out: EC50, stimulated G-protein binding at CB1): 3.4 nM
